Experimental data reported in publication PMC10892375, “Determination of the Cannabinoid CB1 Receptor’s Positive Allosteric Modulator Binding Site through Mutagenesis Studies” (Pharmaceuticals, 2024).

Key:
Format in all cases: cell-based
WT hCB1 = biological target: T1, WT hCB1 (Homo sapiens, UniProt P21554); assay: pIRES G protein dissociation BRET assay, WT hCB1; details: for Allosteric modulation of maximal CP55940-induced G protein dissociation / Effect on the potency of CP55940-induced G protein dissociation: 10 μM allosteric ligand; for Allosteric modulation of maximal CP55940-induced G protein dissociation / Effect on the potency of CP55940-induced G protein dissociation / Allosteric agonism: G protein dissociation in the absence of an orthosteric ligand: result in words; for G protein dissociation, AUC of 10 μM compound (maximal response): 10 μM ligand alone
T1 construct: expressed in transfected cells; host or cells: HEK293
T1 sequence (P21554 whole entry): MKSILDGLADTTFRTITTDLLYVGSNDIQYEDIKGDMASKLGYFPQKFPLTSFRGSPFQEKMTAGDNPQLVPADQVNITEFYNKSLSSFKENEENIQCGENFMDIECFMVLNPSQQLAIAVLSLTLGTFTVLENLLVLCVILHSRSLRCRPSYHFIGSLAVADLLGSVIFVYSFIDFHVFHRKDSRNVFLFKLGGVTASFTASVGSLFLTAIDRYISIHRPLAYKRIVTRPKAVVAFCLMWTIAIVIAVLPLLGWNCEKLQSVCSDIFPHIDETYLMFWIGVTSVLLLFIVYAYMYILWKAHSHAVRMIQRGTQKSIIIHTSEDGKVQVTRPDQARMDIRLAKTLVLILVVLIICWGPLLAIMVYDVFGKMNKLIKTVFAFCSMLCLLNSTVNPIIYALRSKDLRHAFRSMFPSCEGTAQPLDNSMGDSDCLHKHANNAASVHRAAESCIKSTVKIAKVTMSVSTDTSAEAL
Protocol: (§1) Mutagenesis studies using the pIRES G protein dissociation assay were performed using human embryonic kidney 293 (HEK293) wild-type cells transiently transfected with pplss-3HA-hCB1 [31] or modified receptor. All cells were cultured in Dulbecco’s Modified Eagle’s Medium (DMEM) supplemented with 10% fetal bovine serum (FBS), grown in […] vented-cap flasks, and maintained in a 37° C incubator at 5% CO2.
(§2) Dissociation of the G protein heterotrimer, specifically Gαi1, Gβ1, and Gγ2, was investigated using a bioluminescence resonance energy transfer (BRET) assay with the pIRES biosensor first described by and adapted by.
(§3) Briefly, 3 × 10^6 WT HEK293 cells were seeded into 10 cm culture dishes (Corning, Corning, NY, USA; one dish for the control receptor and one for each modified receptor) and incubated at 37 °C for 24 h to gain 50–60% confluency. Culture medium was then replaced and transfection mixtures containing 3 μg pIRES vector and 1 μg receptor (either pplss-hCB1 or modified receptor) were prepared (4 μg total DNA). Plasmids were initially diluted in sterile Milli-Q water before being diluted in OptiMEM reduced serum medium (Thermo Fisher Scientific, Waltham, MA, USA) and combined with […] polyethylenimine (PEI)-max (1:9 DNA:PEI-max ratio) and incubated at room temperature for 20 min. Transfection mixtures were then added to cells via dropwise addition, and cells were incubated at 37 °C for 24 h. Transfected cells were lifted and plated at 50,000 cells/well into poly-d-lysine (PDL; Sigma-Aldrich) coated white 96-well CulturPlates (PerkinElmer, Waltham, MA, USA) and incubated for a further 24 h at 37 °C.
To assay, the culture medium was aspirated and cells were washed with phosphate buffered saline (PBS) and replaced with BRET assay medium (phenol red free DMEM containing 25 mM HEPES and supplemented with 1 mg/mL bovine serum albumin; BSA, MP Biomedicals, Auckland, New Zealand) for 30 min prior to drug addition (serum starve). Drugs were prepared at 10 × concentration in BRET assay medium, combined in a polypropylene V-bottom plate, and incubated at 37° C prior to drug stimulation. Coelenterazine-h (Nanolight Technology, Prolume Ltd, Pinetop, AZ, USA) was prepared at 10 × concentration in BRET assay medium (final concentration 5 μM) and dispensed to cells immediately prior to drug stimulation. Plates were transferred to the LUMIstar Omega plate reader (BMG Labtech GmbH, Ortenburg, BW, Germany) and luminescence (475 and 535 nm) was detected simultaneously in the dark with BRET1 filters for approximately 5 min to establish a baseline BRET ratio. Drugs were added to cells, plates were returned to the LUMIstar and luminescence was detected for a further 25 min. BRET ratios (475/535) were calculated in Omega MARS software v 3.32, exported, and data were analysed using GraphPad Prism v8. Baseline correction was performed using an in-built function in GraphPad Prism, subtracting vehicle BRET ratios from matched conditions. Area under the curve (AUC) analysis was performed in GraphPad Prism using an in-built function to obtain concentration response data.
All data analysis was performed using GraphPad Prism v8. Sigmoidal concentration series were generated by performing AUC analysis and fit using three-parameter nonlinear regression curves. Statistical analyses were performed using data interpolated from nonlinear regression curves using parameters derived from five independent biological replicates. Both one- and two-way repeated measures ANOVA and paired t-tests were used where appropriate (specified in-text), and posthoc tests, specified in text, were performed when significance was reached (p < 0.05). Time course data presented in this manuscript are pooled data (n = 5) and expressed as mean ± SEM. Concentration response data are representative, data expressed as mean ± SD from technical triplicates, to avoid misestimation of parameters from combined/pooled data.

hCB1 mutant L209A^3.45 = biological target: T2, hCB1 mutant L209A^3.45 (Homo sapiens, UniProt P21554, L209A); assay: pIRES G protein dissociation BRET assay, L209A mutant; details: for G protein dissociation, AUC of 10 μM compound (maximal response): 10 μM ligand alone
T2 construct: expressed in transfected cells; host or cells: HEK293
T2 sequence (P21554 whole entry L209A): as the sequence (P21554 whole entry) above, with L209A counted along it
Protocol: as §1
(§4) Mutants of pplss-3HA-hCB1 (WT, pEF-V4-HisA (pEF4a) construct) were generated using a modified QuikChange® (Stratagene, San Diego, CA, USA) site-directed mutagenesis approach using KAPA HiFi Hotstart Polymerase (KAPA Biosystems, Roche, Basel, Switzerland). Briefly, single-stranded primers used to modify one or two base pairs within the target amino acid using PCR were purchased from Integrated DNA Technologies (IDT, Coralville, IA, USA). All pplss-hCB1 mutants were generated using the pplss-3HA-hCB1 pEF4a as parental DNA. PCR products were generated using recommended cycling conditions and treated with Dpn1 (New England Biolabs, Ipswich, MA, USA) overnight at 37° C to digest methylated parental DNA. PCR products were electrophoresed and run on an agarose gel (1% (w.v^−1) agarose, HydraGene, Piscataway, NJ, USA) containing 0.25 μg/mL ethidium bromide (Sigma-Aldrich, St. Louis, MO, USA). Gels were run in 40 mM TRIS-acetate buffer containing […] (pH 8.3) at 100 V for 30 min, maximum current and included a 1kb+ DNA ladder (Invitrogen, Thermo Fisher Scientific, Carlsbad, CA, USA) for reference. Gels were imaged using an UVTech Alliance Q9 Mini transilluminator (UVTech Alliance, Cambridge, UK). Digested products were then used to transform NEB 5α competent E. coli cells in accordance with manufacturer’s instructions. Briefly, transformed PCR products were grown overnight on 8.5 mL Luria Broth agar plates (containing 100 μg/mL ampicillin) at 37° C. Single bacterial colonies were picked and inoculated in Luria Broth (containing 100 μg/mL ampicillin) and grown overnight in a shaking incubator at 37° C. Plasmids were then harvested and purified using a Qiagen miniprep kit (Qiagen, Hilden, Germany) and validated using sequencing (Genetics Analysis Service, University of Otago, Dunedin, New Zealand).
as §2, §3
To assay, the culture medium was aspirated and cells were washed with phosphate buffered saline (PBS) and replaced with BRET assay medium (phenol red free DMEM containing 25 mM HEPES and supplemented with 1 mg/mL bovine serum albumin; BSA, MP Biomedicals, Auckland, New Zealand) for 30 min prior to drug addition (serum starve). Drugs were prepared at 10 × concentration in BRET assay medium, combined in a polypropylene V-bottom plate, and incubated at 37° C prior to drug stimulation. […]

hCB1 mutant R148A^12.51 = biological target: T3, hCB1 mutant R148A^12.51 (Homo sapiens, UniProt P21554, R148A); assay: pIRES G protein dissociation BRET assay, R148A mutant; details: for Increase in the potency of CP55940-induced G protein dissociation: 10 μM allosteric ligand; for G protein dissociation, AUC of 10 μM compound (maximal response): 10 μM ligand alone
T3 construct: expressed in transfected cells; host or cells: HEK293
T3 sequence (P21554 whole entry R148A): as the sequence (P21554 whole entry) above, with R148A counted along it
Protocol: as §1, §4, §2, §3
To assay, the culture medium was aspirated and cells were washed with phosphate buffered saline (PBS) and replaced with BRET assay medium (phenol red free DMEM containing 25 mM HEPES and supplemented with 1 mg/mL bovine serum albumin; BSA, MP Biomedicals, Auckland, New Zealand) for 30 min prior to drug addition (serum starve). Drugs were prepared at 10 × concentration in BRET assay medium, combined in a polypropylene V-bottom plate, and incubated at 37° C prior to drug stimulation.

[1] = 10 μM CP55940 in the presence of 10 μM ZCZ011
[2] = in the presence of 10 μM GAT228
[3] = in the presence of 10 μM GAT229
[4] = top of the curve (maximal response)

| Compound | G protein dissociation, AUC, 10 μM CP55940 + 10 μM ZCZ011 (WT hCB1; [1]) | EMAX, CP55940 + 10 μM GAT228 (WT hCB1; [2]) | EMAX, CP55940 + 10 μM GAT229 (WT hCB1; [3]) | EMAX, CP55940 Alone (WT hCB1; [4]) | G protein dissociation, AUC, 10 μM CP55940 + 10 μM ZCZ011 (hCB1 mutant L209A^3.45; [1]) | G protein dissociation, AUC of 10 μM compound (maximal response) (hCB1 mutant L209A^3.45) | EMAX, CP55940 + 10 μM GAT228 (hCB1 mutant L209A^3.45; [2]) | EMAX, CP55940 + 10 μM GAT229 (hCB1 mutant L209A^3.45; [3]) | EMAX, CP55940 Alone (hCB1 mutant L209A^3.45; [4]) | G protein dissociation, AUC, 10 μM CP55940 + 10 μM ZCZ011 (hCB1 mutant R148A^12.51; [1]) | EMAX, CP55940 + 10 μM GAT228 (hCB1 mutant R148A^12.51; [2]) | EMAX, CP55940 + 10 μM GAT229 (hCB1 mutant R148A^12.51; [3]) | EMAX, CP55940 Alone (hCB1 mutant R148A^12.51; [4]) | Allosteric modulation of maximal CP55940-induced G protein dissociation (WT hCB1) | Effect on the potency of CP55940-induced G protein dissociation (WT hCB1) | G protein dissociation, AUC of 10 μM compound (maximal response) (WT hCB1) | Allosteric agonism: G protein dissociation in the absence of an orthosteric ligand (WT hCB1) | Increase in the potency of CP55940-induced G protein dissociation (hCB1 mutant R148A^12.51) | G protein dissociation, AUC of 10 μM compound (maximal response) (hCB1 mutant R148A^12.51) |
| --- | --- | --- | --- | --- | --- | --- | --- | --- | --- | --- | --- | --- | --- | --- | --- | --- | --- | --- | --- |
| CCCCCCC(C)(C)c1ccc([C@@H]2C[C@H](O)CC[C@H]2CCCO)c(O)c1 [CP55940] | −215.9 ± 2.9 | −194.2 ± 7.3 ∆BRET.sec | −205.1 ± 7.8 ∆BRET.sec | −184.1 ± 3.8 ∆BRET.sec | −71.3 ± 4.2 | −42.7 ± 2.8 | −43.2 ± 4.5 ∆BRET.sec | −51.9 ± 2.8 ∆BRET.sec | −39.8 ± 1.1 ∆BRET.sec | −237.3 ± 11.6 | −218.2 ± 8.5 ∆BRET.sec | −243.9 ± 5.4 ∆BRET.sec | −175.6 ± 11.4 ∆BRET.sec |  |  |  |  |  |  |
| O=[N+]([O-])C[C@H](c1ccccc1)c1c(-c2ccccc2)[nH]c2ccccc12 [GAT228] |  |  |  |  |  | −19.0 ± 3.3 |  |  |  |  |  |  |  | did not alter CP55940-induced G protein dissociation | small but significant decrease in the potency of CP55940 | −105.7 ± 7.2 | increased wild-type G protein dissociation | less than 0.5 log units | −102.7 ± 11.8 |
| O=[N+]([O-])C[C@@H](c1ccccc1)c1c(-c2ccccc2)[nH]c2ccccc12 [GAT229] |  |  |  |  |  | −25.1 ± 3.5 |  |  |  |  |  |  |  | increased maximal CP55940-induced G protein dissociation | Neither GAT229 nor GAT228 increased the potency | −148.6 ± 7.2 | increased wild-type G protein dissociation | less than 0.5 log units | −148.5 ± 7.7 |
| Cc1ccc2c(C(C[N+](=O)[O-])c3cccs3)c(-c3ccccc3)[nH]c2c1 (centres unmarked) [ZCZ011, 6-Methyl-3-(2-nitro-1-(thiophen-2-yl)ethyl)-2-phenyl-1 H-indole] |  |  |  |  |  | −34.4 ± 2.9 |  |  |  |  |  |  |  | increased maximal CP55940-induced G protein dissociation |  | −167.3 ± 3.2 | increased wild-type G protein dissociation |  | −150.1 ± 10.2 |
